The values that follow come from patent US7208518B2, “Substituted furochromene compounds of antiinflammatory action” (GlaxoSmithKline Istrazivacki Centar Zagreb D.O.O., priority 2003, dated 2007).

Assay [1] has as its system hyperreactivity of the bronchi induced by methacholine. The assay is described as follows: Hyperreactivity of the bronchi, pletismometric method, mice. In kind it is in vivo. To be noted: i.p. 10 mg/kg, totally for 4 days, methacholine concentration of 25 mg/mL, measured over 24 hours after the provocative test. As for the experimental part:
(§1) Hyperreactivity of the Bronchi
(§2) The hyperreactivity of the bronchi was measured by pletismometric method (Buxco pletismometer), which is based on pressure difference and was performed in conscious and non-bound animals. The action of the compounds on the hyperreactivity of the bronchi induced by methacholine (Sigma) in aerosol form in different concentrations was expressed by the percentage of the increase of the enhanced pause value (PENH) above the base line, which was recorded without a cholinergic stimulant.
Compound 6 was used i.p. in mice in a dosis of 10 mg/kg within a period beginning two days prior to provocative test to the end of the test, totally for 4 days. The hyperreactivity of the bronchi was measured by pletismometric method over 24 hours after the provocative test.

For assay [2] the test system is unchanged. The assay is described as follows: Hyperreactivity of the bronchi, pletismometric method, rats. In kind it is in vivo. Particulars: i.p. 10 mg/kg, totally for 4 days, methacholine concentration of 50 mg/mL, measured over 24 hours after the provocative test. As for the experimental part: as §1, §2
Compound 36 was used i.p. in rats in a dosis of 10 mg/kg within a period beginning two days prior to the provocative test to the end of test, totally for 4 days. The hyperreactivity of the bronchi was measured by pletismometric method over 24 hours after the provocative test.

For the molecule `Cc1cc(C)c2c(O)c(C3c4c(c5c(C)cc(C)cc5oc4=O)OC3O)c(=O)oc2c1` (centres unmarked) [Compound 6, 2-Hydroxy-3-(4-hydroxy-5,7-dimethyl-2-oxo-2H-chromene-3-yl)-7,9-dimethyl-2,3-dihydro-4H-furo[3,2-c]chromene-4-one], in assay [1], the “hyperreactivity of respiratory airways (PENH) in relation to the positive control group” value is recorded as “statistically significantly (t-test, p<0.05) decreased”.
Regarding `O=c1oc2cc(Cl)ccc2c(O)c1C1c2c(c3ccc(Cl)cc3oc2=O)OC1O` (centres unmarked) [Compound 36, 2-Hydroxy-3-(4-hydroxy-7-chloro-2-oxo-2H-chromene-3-yl)-7-chloro-2,3-dihydro-4H-furo[3,2-c]chromene-4-one], in assay [2], the “hyperreactivity of respiratory airways (PENH) in relation to the positive control group” value is on record as “statistically significantly (t-test, p<0.01) decreased”.
